According to paper PMC5010537, “Purification and characterization of laccase from Marasmius species BBKAV79 and effective decolorization of selected textile dyes” (3 Biotech, 2016):

Tested on: T1, laccase from Marasmius sp. BBKAV79
T1 construct: gene benzenediol:oxygen oxidoreductase; native extracellular enzyme purified from culture supernatant (ammonium sulfate, Sephadex G-100, DEAE-cellulose); monomer, ~75 kDa by native PAGE
Assay: absorbance at […] nm, Lineweaver-Burk plot
Format: biochemical
Conditions: 100 mM sodium acetate buffer pH 5.5; guaiacol 0.18-10 mM; free enzyme
Excerpt: BBKAV79 | K m and V max of purified laccase from Marasmius sp.

- Km: 3.03 mM
Compound: COc1ccccc1O [guaiacol]
